Measurements as given in patent US6451802B1, “S-oxide lipid lowering compounds” (Janssen Pharmaceutica N.V., priority 1998, dated 2002).
pIC50: −log10 of the molar value.

Assays:
[1] = molecular target: T1, Dog MTP (Canis lupus familiaris, UniProt A0A8I3S8Z7); assay: MTP assay (triglyceride transfer from donor to acceptor vesicles); format: biochemical; conditions: drug concentration that corresponds with 50% of control values
T1 sequence (A0A8I3S8Z7 18-893): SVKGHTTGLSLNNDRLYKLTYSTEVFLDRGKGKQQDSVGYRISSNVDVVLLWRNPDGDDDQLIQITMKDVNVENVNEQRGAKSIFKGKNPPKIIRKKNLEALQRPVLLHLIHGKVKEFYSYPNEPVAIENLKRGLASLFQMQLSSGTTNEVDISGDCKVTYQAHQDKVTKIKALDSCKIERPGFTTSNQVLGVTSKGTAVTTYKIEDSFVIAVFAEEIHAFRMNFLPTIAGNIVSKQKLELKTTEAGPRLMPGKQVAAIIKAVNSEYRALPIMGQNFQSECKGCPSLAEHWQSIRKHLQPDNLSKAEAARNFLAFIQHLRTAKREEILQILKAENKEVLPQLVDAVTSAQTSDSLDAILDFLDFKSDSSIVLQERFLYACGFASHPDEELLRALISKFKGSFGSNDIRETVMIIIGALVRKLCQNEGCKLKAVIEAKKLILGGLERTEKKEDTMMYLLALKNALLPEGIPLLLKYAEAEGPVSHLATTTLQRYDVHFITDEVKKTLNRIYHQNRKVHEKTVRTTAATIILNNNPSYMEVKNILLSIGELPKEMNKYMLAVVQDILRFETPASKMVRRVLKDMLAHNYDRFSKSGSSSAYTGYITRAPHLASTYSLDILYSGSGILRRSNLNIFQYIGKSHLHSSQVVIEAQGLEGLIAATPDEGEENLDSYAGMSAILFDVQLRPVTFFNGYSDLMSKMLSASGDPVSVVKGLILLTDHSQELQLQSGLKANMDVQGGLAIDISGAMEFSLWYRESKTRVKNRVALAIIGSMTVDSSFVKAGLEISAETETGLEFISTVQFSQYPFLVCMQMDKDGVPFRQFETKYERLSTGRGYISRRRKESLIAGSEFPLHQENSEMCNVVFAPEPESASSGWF
Method: MTP activity was measured using an assay similar to one described by J. R. Wetterau and D. B. Zilversmit in Chemistry and Physics of Lipids, 38, 205-222 (1985). To prepare the donor and acceptor vesicles, the appropriate lipids in chloroform were put into a glass test tube and dried under a stream of N2. A buffer containing 15 mM Tris-HCl pH 7.5, 1 mM EDTA, 40 mM NaCl, 0.02% NaN3 (assay buffer) was added to the dried lipid. The mixture was vortexed briefly and the lipids were then allowed to hydrate for 20 min on ice. Vesicles were then prepared by bath sonication (Branson 2200) at room temperature for maximum 15 min. Butylated hydroxytoluene was included in all vesicle preparations at a concentration of 0.1%. The lipid transfer assay mixture contained donor vesicles (40 nmol phosphatidylcholine, 7.5 mol % of cardiolipin and 0.25 mol % glycerol tri [1-^14C]-oleate), acceptor vesicles (240 nmol phosphatidylcholine) and 5 mg BSA in a total volume of 675 μl in a 1.5 ml microcentrifuge tube. Test compounds were added dissolved in DMSO (0.13% final concentration). After 5 minutes of pre-incubation at 37° C., the reaction was started by the addition of MTP in 100 μl dialysis buffer. The reaction was stopped by the addition of 400 μl DEAE-52 cellulose pre-equilibrated in 15 mM Tris-HCI pH 7.5, 1 mM EDTA, 0.02% NaN3 (1:1, vol/vol). The mixture was agitated for 4 min and centrifuged for 2 min at maximum speed in an Eppendorf centrifuge (4° C.) to pellet the DEAE-52-bound donor vesicles. An aliquot of the supernatant containing the acceptor liposomes was counted and the [^14C]-counts were used to calculate the percent triglyceride transfer from donor to acceptor vesicles. Resulting IC50 values are enumerated in Table C.1.

[2] = tested on: HepG2 cells; assay: Quantification of the secretion of ApoB in HepG2 cells; format: cell-based; conditions: 24 hours of incubation, calculated by non-linear regression analysis
Method: HepG2 cells were cultured in 24-well plates in MEM Rega 3 containing 10% fetal calf serum. At 70% confluency, the medium was changed and the test compound or carrier (DMSO, 0.4% final concentration) was added. After 24 hours of incubation, the medium was transferred to Eppendorf tubes and cleared by centrifugation. A sheep antibody directed against either apoB was added to the supernatant and the mixture was kept at 8° C. for 24 hours. Then, rabbit anti-sheep antibody was added and the immune complex was allowed to precipitate for 24 hours at 8° C. The immunoprecipitate was pelleted by centrifugation for 25 min at 1320 g and washed twice with a buffer containing 40 mM Mops, 40 mM NaH2PO4, 100 mM NaF, 0.2 mM DTT, 5 mM EDTA, 5 mM EGTA, 1% Triton-X-100, 0.5% sodium deoxycholate (DOC), 0.1% SDS, 0.2 μM leupeptin and 0.2 μM PMSF. Radioactivity in the pellet was quantified by liquid scintillation counting. Resulting IC50 values are enumerated in Table C. 1.

[3] = Plasma levels in a clinical trial on human volunteers; format: in vivo; conditions: for share of the total AUC, compounds 1, 2 and 3 together: one value for the three compounds combined
From the text: Plasma levels of compounds 1, 2 and 3 and of compound A have been measured in a clinical trial on human volunteers.

[4] = human volunteers, single 200 mg dose administration of compound A

Structure (SMILES)	pIC50 [1]	pIC50 ([2]; Homo sapiens, HepG2, 24 h)	clearance compared with compound A ([3]; human volunteers)	share of the total AUC, compounds 1, 2 and 3 together [3, 4] [%]	pIC50 [2]	share of the total AUC (Area Under the Curve) [3, 4] [%]	metabolisation on passing the liver (first-pass) ([3]; human, in vivo)
CCC(C)n1ncn(-c2ccc(N3CCN(c4ccc(OC[C@@H]5CO[C@@](CS(=O)(=O)c6nncn6C)(c6ccc(Cl)cc6)O5)cc4)CC3)cc2)c1=O (relative stereo) [Compound 1, [2S-[2α,4α(S*)]]-4-[4-[4-[4-[[2-(4-chloropheny)-2-[[(4-methyl-4H-1,2,4-triazol-3-yl)sulfonyl]methyl]-1,3-dioxlan-4-yl]methoxy]phenyl]-1-piperazinyl]phenyl]-2,4-dihydro-2-(1-methylpropyl)-3H-1,2,4-triazol-3-one]	8.21	7.21	slower than clearance of compound A	92	–	–	–
CCC(C)n1ncn(-c2ccc(N3CCN(c4ccc(OCC5COC(C[S+]([O-])c6nncn6C)(c6ccc(Cl)cc6)O5)cc4)CC3)cc2)c1=O (single isomer, unassigned) [Compound 2]	6.93	–	slower than clearance of compound A	92	6.03	–	–
CCC(C)n1ncn(-c2ccc(N3CCN(c4ccc(OCC5COC(C[S+]([O-])c6nncn6C)(c6ccc(Cl)cc6)O5)cc4)CC3)cc2)c1=O (single isomer, unassigned) [Compound 3, [2S-[2α(B),4α(S*)]]-4-[4-[4-[4-[[2-(4-chlorophenyl)-2-[[(4-methyl-4H-1,2,4-traizol-3yl]sulfinyl]methyl]-1,3-dioxolan-4-yl]methoxy]phenyl]-1-piperazinyl]Phenyl-2,4-dihydro-2-(1-methylpropyl)-3H-1,2,4-traizol-3-one]	7.96	–	slower than clearance of compound A	92	7.03	–	–
CC[C@@H](C)n1ncn(-c2ccc(N3CCN(c4ccc(OC[C@@H]5CO[C@@](CSc6nncn6C)(c6ccc(Cl)cc6)O5)cc4)CC3)cc2)c1=O [compound A, (−)-[2S-[2α,4α(S*)]]-4-[4-[4-[4-[[-2-(4-chlorophenyl)-2-[[(4-methyl-4H-1,2,4-triazol-3-yl)thio]methyl]-1,3-dioxolan-4-yl]methoxy]phenyl]-1-piperazinyl]phenyl]-2,4-dihydro-2-(1-methylpropyl)-3H-1,2,4-triazol-3-one, reference compound]	8.12	7.60	–	–	–	8	extensive metabolisation
